Laboratory results: patent US10202379B2, “Substituted polycyclic carbamoyl pyridone derivative prodrug” (priority 2010, dated 2019)
Read-outs that look alike come from different tables or passages of the source.

Test system: influenza virus
Experiment: microbe, parasite or virus in culture
Type: cell-based
Conditions: MDBK or MDCK cells, 3 days, WST-8
[1] = unidentified influenza virus, 72 h, read-out: CPE EC50, parent compounds (Reference examples)

| SMILES | EC50 [1] | EC50 (parent compounds (Reference examples), read-out: CPE EC50) |
| --- | --- | --- |
| COCCN1C[C@H](C(c2ccccc2)c2ccccc2)n2cc(OC)c(=O)c(O)c2C1=O [Example 62] | 1.68 µM | – |
| C[C@@H](N1CN(C2c3ccccc3CSc3ccc(F)cc32)n2ccc(=O)c(O)c2C1=O)C(F)(F)F (stereo partly shown) [Reference example 345] | 0.008 µM | – |
| C[C@@H](N1CN(C2c3ccccc3CSc3cc(F)ccc32)n2ccc(=O)c(O)c2C1=O)C(F)(F)F (stereo partly shown) [Reference example 344] | 0.009 µM | – |
| COCCN1C[C@H](C(c2ccccc2)c2ccccc2)n2cc(N)c(=O)c(O)c2C1=O [Example 56] | 3.86 µM | – |
| C[C@@H](N1CN([C@@H]2c3ccccc3SCc3c(Br)cccc32)n2ccc(=O)c(O)c2C1=O)C(F)(F)F [Reference example 463] | 0.005 µM | – |
| C[C@H](CO)N1CN(C2c3ccccc3CSc3ccccc32)n2ccc(=O)c(O)c2C1=O (stereo partly shown) [Reference example 373] | 0.05 µM | – |
| C[C@@H](N1CN([C@H]2c3cc(F)ccc3CSc3ccccc32)n2ccc(=O)c(O)c2C1=O)C(F)(F)F [Reference example 441] | 0.005 µM | – |
| CCOC(=O)CCN1CN(C(c2ccccc2)c2ccccc2)n2ccc(=O)c(O)c2C1=O [Example 128] | 0.416 µM | – |
| O=C1c2c(O)c(=O)ccn2N([C@H]2c3ccccc3CSc3c(F)cccc32)CN1[C@H](CO)C(F)(F)F [Reference example 611] | 0.043 µM | – |
| COCCN1CN(C2c3ccccc3COc3c(Cl)cccc32)n2ccc(=O)c(O)c2C1=O (stereo not shown) [Reference example 396] | 0.06 µM | – |
| CC(C)C1N(CCO)C(=O)c2c(O)c(=O)ccn2N1C1c2ccccc2CCc2ccccc21 (stereo not shown) [Reference example 553] | 0.03 µM | – |
| Cc1cccc2c1CSc1c(Cl)cccc1[C@H]2N1CN([C@H](C)C(F)(F)F)C(=O)c2c(O)c(=O)ccn21 [Reference example 612] | 0.013 µM | – |
| COCC(COC)N1CN(C2c3ccccc3CSc3c(F)cccc32)n2ccc(=O)c(O)c2C1=O (stereo not shown) [Reference example 339] | 0.04 µM | – |
| COCCN1C[C@H](C(c2ccccc2)c2ccccc2)n2cc(CO)c(=O)c(O)c2C1=O [Example 48] | 10.9 µM | – |
| O=C1c2c(O)c(=O)ccn2N(C2c3ccccc3CSc3ccccc32)CN1C1CCC(F)(F)CC1 (stereo not shown) [Reference example 313] | 0.05 µM | – |
| C[C@@H](N1CN([C@@H]2c3ccccc3SCc3c(Cl)cccc32)n2ccc(=O)c(O)c2C1=O)C(F)(F)F [Reference example 417] | 0.003 µM | – |
| CC(C)N1CN(C2c3ccccc3COc3c(F)cccc32)n2ccc(=O)c(O)c2C1=O (stereo not shown) [Reference example 403] | 0.07 µM | – |
| CN1CN(C2c3ccccc3CSc3cc(Cl)ccc32)n2ccc(=O)c(O)c2C1=O (stereo not shown) [Reference example 348] | 0.08 µM | – |
| Cc1cccc2c1SCc1ccccc1C2N1CN(C(C)C)C(=O)c2c(O)c(=O)ccn21 (stereo not shown) [Reference example 356] | 0.02 µM | – |
| C[C@@H](N1CN([C@H]2c3ccc(F)cc3CSc3c(F)cccc32)n2ccc(=O)c(O)c2C1=O)C(F)(F)F [Reference example 470] | 0.003 µM | – |
| CC(C)N1CN(C2c3ccccc3CSc3c(Cl)cccc32)n2ccc(=O)c(O)c2C1=O (stereo not shown) [Reference example 326] | 0.005 µM | – |
| C[C@@H](N1CN([C@H]2c3ccccc3CCc3c(Cl)cccc32)n2ccc(=O)c(O)c2C1=O)C(F)(F)F [Reference example 639] | 0.017 µM | – |
| C[C@@H](N1CN([C@@H]2c3ccccc3SCc3cccc(F)c32)n2ccc(=O)c(O)c2C1=O)C(F)(F)F [Reference example 456] | 0.004 µM | – |
| C[C@@H](N1CN([C@H]2c3ccccc3CSc3c(C#N)cccc32)n2ccc(=O)c(O)c2C1=O)C(F)(F)F [Reference example 618] | 0.018 µM | – |
| Cc1nnc(CN2CN(C3c4ccccc4CCc4ccccc43)n3ccc(=O)c(O)c3C2=O)o1 [Reference example 256] | 0.4 µM | – |

| SMILES | EC50 [1] | EC50 (parent compounds (Reference examples), read-out: CPE EC50) |
| --- | --- | --- |
| CN1C(=O)c2c(O)c(=O)c(C(=O)O)cn2C[C@H]1C(c1ccccc1)c1ccccc1 [Example 43] | 1.41 µM | – |
| COCCN1CN(Cc2ccccc2-c2ccccc2)n2ccc(=O)c(O)c2C1=O [Example 99] | 2 µM | – |
| C[C@@H](N1CN(C(c2ccccc2)c2ccccc2Cl)n2ccc(=O)c(O)c2C1=O)C(F)(F)F (stereo partly shown) [Reference example 243] | 0.02 µM | – |
| CC(C)N1CN(C2c3ccccc3CSc3cc(F)ccc32)n2ccc(=O)c(O)c2C1=O (stereo not shown) [Reference example 352] | 0.02 µM | – |
| O=C(NCCN1CN(C(c2ccccc2)c2ccccc2)n2ccc(=O)c(O)c2C1=O)c1ccccc1 [Example 150] | 0.553 µM | – |
| COCC(COC)N1CN(C2c3ccccc3CCc3ccccc32)n2ccc(=O)c(O)c2C1=O [Reference example 272] | 0.03 µM | – |
| O=C1c2c(O)c(=O)ccn2N(C2c3ccccc3CSc3c(Cl)cccc32)CN1[C@@H]1C[C@@H]1F (stereo partly shown) [Reference example 332] | 0.02 µM | – |
| C[C@@H](N1CN([C@H]2c3cccc(F)c3CSc3c(F)cccc32)n2ccc(=O)c(O)c2C1=O)C(F)(F)F [Reference example 469] | 0.004 µM | – |
| COCCN1CN(C(c2ccccc2)c2ccccc2)n2cc(C(=O)O)c(=O)c(O)c2C1=O [Example 94] | 1.47 µM | – |
| CC(=O)N(C)CC1N(C(C)C)C(=O)c2c(O)c(=O)ccn2N1C1c2ccccc2CCc2ccccc21 (stereo not shown) [Reference example 525] | 0.09 µM | – |
| O=C1c2c(O)c(=O)ccn2N(C2c3ccccc3CCc3ccccc32)CN1Cc1ncns1 [Reference example 271] | 0.102 µM | – |
| C[C@@H](N1CN([C@H]2c3cc(Cl)ccc3CSc3ccccc32)n2ccc(=O)c(O)c2C1=O)C(F)(F)F [Reference example 443] | 0.004 µM | – |
| C[C@@H](N1CN([C@@H]2c3ccccc3CSc3ccccc32)n2ccc(=O)c(O)c2C1=O)C(F)(F)F [Reference example 414] | – | 0.131 µM |
| C[C@@H](N1CN([C@H]2c3cccc(C(F)(F)F)c3CSc3c(F)cccc32)n2ccc(=O)c(O)c2C1=O)C(F)(F)F [Reference example 660] | 0.011 µM | – |
| CC(=O)OCCN1CN(C2c3ccccc3CSc3c(Cl)cccc32)n2ccc(=O)c(O)c2C1=O (stereo not shown) [Reference example 359] | 0.08 µM | – |
| C[C@@H](N1CN([C@H]2c3ccccc3CSc3c(F)cccc32)n2ccc(=O)c(O)c2C1=O)C(F)(F)F [Reference example 444] | 0.003 µM | – |
| C[C@H](N1CN([C@H]2c3ccc(F)cc3CSc3ccccc32)n2ccc(=O)c(O)c2C1=O)C(F)(F)F [Reference example 460] | 0.009 µM | – |
| C[C@@H](N1CN([C@H]2c3ccc(F)cc3CSc3ccccc32)n2ccc(=O)c(O)c2C1=O)C(F)(F)F [Reference example 454] | 0.004 µM | – |
| O=C(O)c1cn2c(c(O)c1=O)C(=O)N1CCCO[C@H]1[C@@H]2C(c1ccccc1)c1ccccc1 [Example 175] | 0.102 µM | – |
| C[C@@H](N1CN([C@H]2c3ccccc3CSc3ccc(F)cc32)n2ccc(=O)c(O)c2C1=O)C(F)(F)F [Reference example 448] | 0.008 µM | – |
| CN(CCN1CN(C(c2ccccc2)c2ccccc2)n2ccc(=O)c(O)c2C1=O)S(=O)(=O)c1ccccc1 [Example 138] | 0.1 µM | – |
| CCN(CC)CCC1N(C(C)C)C(=O)c2c(O)c(=O)ccn2N1C1c2ccccc2CCc2ccccc21 (stereo not shown) [Reference example 538] | 0.03 µM | – |
| COCCN1C[C@H](C(c2ccccc2)c2ccccc2)n2cc(Br)c(=O)c(O)c2C1=O [Example 63] | 2 µM | – |
| COCCN1CN(C2c3ccccc3CSc3c(F)cccc32)n2ccc(=O)c(O)c2C1=O (stereo not shown) [Reference example 336] | 0.07 µM | – |
